According to patent US7259140B2, “Heparin-binding peptides and uses thereof” (Thomas Jefferson University, priority 2003, dated 2007):
Entries after “also recorded” stand apart in the source; their conditions may differ. Bridge positions count the residues as written; N and C are the ends. Peptide text beside a SMILES is read from it.

Experiments:
[1] = test system: anti-Factor Xa Activity of Unfractionated Heparin; assay: Anti-Factor Xa assay: neutralization of unfractionated heparin in citrate or plasma in vitro; type: biochemical, human; details: UFH 0.7 U/ml
Procedure, shortened: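 Chromogenic anti-Factor Xa kit run with UFH, enoxaparin (Lovenox) or danaparoid (Orgaran) in 0.32% citrate or citrated plasma from three volunteers. Heparin/ATIII complex formed, peptide added, then Factor Xa and dye substrate; absorbance at 405 nm, inversely proportional to remaining anti-Factor Xa activity.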

[2] = test system: Anti-Factor Xa Activity of the Non-Heparin Glycosaminoglycan Orgaran ®; assay: Anti-Factor Xa assay: neutralization of Orgaran in citrate or plasma in vitro; type: biochemical, human
Procedure: The ability of peptides such as (ARKKAAKA)3VLVLVLVL (SEQ ID NO:5) to neutralize the anti-Factor Xa activity of UFH and LMWH in vitro was tested using the Stachrom Heparin kit (Diagnostica Stago), a standard hematology laboratory assay used to measure the anti-Factor Xa activity of heparin. The assay was performed using the low molecular weight heparin enoxaparin sodium (Lovenox®, Aventis Pharmaceuticals, Inc.), unfractionated heparin (UFH), or the non-heparin glycosaminoglycan danaparoid sodium (Orgaran®, Organon Inc., West Orange, N.J.) in 0.32% citrate or in plasma anticoagulated with 0.32% citrate. Enoxaparin is commonly used clinically as a low molecular weight heparin (LMWH). Danaparoid is commonly used clinically as a non-heparin glycosaminoglycan anticoagulant. Currently, the only FDA approved drug to target UFH is protamine, which is not effective in vivo against LMWH or a non-heparin glycosaminoglycan such as danaparoid. Buffer and ATIII are added to form the heparin/ATIII complex, peptide is added, then Factor Xa, reporter dye substrate for Factor Xa activity, and stop solution, and the dye concentration is read at 405 nm. The absorbance of the dye increases with increasing Factor Xa activity, and thus is inversely proportional to the heparin (anti-Factor Xa activity) concentration. Peptides were tested in plasma obtained from three volunteers (A, B, and C). Platelet function inhibitors PG12 and theophylline were added to the blood immediately upon collection. […]

platelets = assay: Platelet aggregation with aggregation-inducing agents; type: cell-based, human; details: 12 μg/ml; Lovenox 0.5 U/ml; collagen, ADP, ristocetin, epinephrine, SFFLRN, A23187
Procedure: Plasma from six volunteers was tested with various aggregation inducing agents, at several concentrations of each agent, and with six different peptides of the invention. The effect of heparin-binding peptides of the invention on platelet aggregation was determined using standard procedures as previously described. The six peptides which were synthesized and tested were: (ARKKAAKA)4 (SEQ ID NO:31), ARKKAAKA(A16)ARKKAAKA (SEQ ID NO:30), (ARKKAAKA)3ARKKCAKA (SEQ ID NO:33), (ARKKAAKA)3VLVLVLVL (SEQ ID NO:5), C(ARKKAAKA)4C (SEQ ID NO:34), and (AKKARA)6 (SEQ ID NO:32).
The aggregation-inducing agents tested were: collagen, adenosine diphosphate (ADP), ristocetin, epinephrine, the thrombin receptor peptide SFFLRN, and calcium ionophore A23187. Platelets were subjected to protamine, or to SEQ ID NOS:31, 33, 30, 5, 34, or 32 at 12 μg/ml, and Lovenox® at 0.5 U/ml. Platelet aggregation in response to agonists was monitored and percent aggregation was determined over a five minute interval.
The agonist was added after equilibration of the platelets for one minute.

[3] = test system: unfractionated heparin (thrombin-induced clot formation); assay: Thrombin neutralization assay: clotting time of citrated plasma in the presence of unfractionated heparin; type: biochemical, human; details: for Time for clot formation: UFH 0.5 IU/ml
Procedure: It was determined whether heparin-binding peptides of the invention can neutralize unfractionated heparin using the thrombin neutralization assay. The six peptides that were synthesized and used in this Example are: (ARKKAAKA)3VLVLVLVL (SEQ ID NO:5); (ARKKAAKA)(A16)(ARKKAAKA) (SEQ ID NO:30); (ARKKAAKA)4 (SEQ ID NO:31); (AKKARA)6 (SEQ ID NO:32); (ARKKAAKA)3(ARKKCAKA) (SEQ ID NO:33); and cyclized C(ARKKAAKA)4C (SEQ ID NO:34); Citrated plasma was pipetted into a glass tube. Thrombin was added, the tube was manually rotated, and clotting time was determined by observation of clot formation. Normal clotting time is 19-22 seconds.
As a control, to assess the effect of heparin on clot formation, unfractionated heparin was added to the plasma at 0.5 IU anti-thrombin activity/ml and then thrombin was added. Clotting time in the presence of heparin alone was greater than 3 minutes.
To test the effect of peptides, heparin and six peptides at the concentrations indicated in Table 4 were added to the plasma, the mixture was allowed to stand at room temperature for 1 minute, and thrombin was added. The time for the clot to form is indicated. Experiments were performed using plasma from three volunteers—A, B, and C.

[4] = Hemodynamic effects in rats without prior Lovenox; details: 2 mg per rat, no Lovenox
[5] = Hemodynamic effects in rats after administration of the LMWH Lovenox; details: in the presence of LMWH Lovenox
Procedure: Next, experiments were performed in which the animals were treated with the peptides after the administration of the LMWH Lovenox®, as would happen in the clinical situation, because binding of peptides to LMWH would be expected to reduce the effects of the peptides on hemodynamic function.

C[C@@H]1NC(=O)[C@H](C)NC(=O)[C@H](CCCCN)NC(=O)[C@H](CCCCN)NC(=O)[C@H](CCCNC(=N)N)NC(=O)[C@H](C)NC(=O)[C@H](C)NC(=O)[C@H](CCCCN)NC(=O)[C@H](C)NC(=O)[C@H](C)NC(=O)[C@H](CCCCN)NC(=O)[C@H](CCCCN)NC(=O)[C@H](CCCNC(=N)N)NC(=O)[C@H](C)NC(=O)[C@@H](N)CSSC[C@@H](C(=O)O)NC(=O)[C@H](C)NC(=O)[C@H](CCCCN)NC(=O)[C@H](C)NC(=O)[C@H](C)NC(=O)[C@H](CCCCN)NC(=O)[C@H](CCCCN)NC(=O)[C@H](CCCNC(=N)N)NC(=O)[C@H](C)NC(=O)[C@H](C)NC(=O)[C@H](CCCCN)NC(=O)[C@H](C)NC(=O)[C@H](C)NC(=O)[C@H](CCCCN)NC(=O)[C@H](CCCCN)NC(=O)[C@H](CCCNC(=N)N)NC(=O)[C@H](C)NC(=O)[C@H](C)NC(=O)[C@H](CCCCN)NC1=O [C(ARKKAAKA)4C, cyclized C(ARKKAAKA)4C] (H-CARKKAAKAARKKAAKAARKKAAKAARKKAAKAC-OH; disulfide 1-34)
Unfractionated Heparin Neutralized ([1]; 1 μg/ml Peptide, A Plasma): 0.157 ± 0.032 U/ml | Unfractionated Heparin Neutralized ([1]; 1 μg/ml Peptide, B Plasma): 0.194 ± 0.066 U/ml | Unfractionated Heparin Neutralized ([1]; 1 μg/ml Peptide, C Plasma): 0.078 ± 0.027 U/ml | Unfractionated Heparin Neutralized ([1]; 1 μg/ml Peptide, Citrate): 0.131 ± 0.070 U/ml | Unfractionated Heparin Neutralized ([1]; 6 μg/ml Peptide, A Plasma): 0.442 ± 0.031 U/ml | Unfractionated Heparin Neutralized ([1]; 6 μg/ml Peptide, B Plasma): 0.426 ± 0.064 U/ml | Unfractionated Heparin Neutralized ([1]; 6 μg/ml Peptide, C Plasma): 0.447 ± 0.054 U/ml | Unfractionated Heparin Neutralized ([1]; 6 μg/ml Peptide, Citrate): 0.590 ± 0.024 U/ml | Unfractionated Heparin Neutralized ([1]; 12 μg/ml Peptide, A Plasma): 0.579 ± 0.128 U/ml | Unfractionated Heparin Neutralized ([1]; 12 μg/ml Peptide, B Plasma): 0.552 ± 0.056 U/ml | Unfractionated Heparin Neutralized ([1]; 12 μg/ml Peptide, C Plasma): 0.583 ± 0.066 U/ml | Unfractionated Heparin Neutralized ([1]; 12 μg/ml Peptide, Citrate): 0.560 ± 0.012 U/ml | Unfractionated Heparin Neutralized ([1]; 60 μg/ml Peptide, A Plasma): 0.605 ± 0.088 U/ml | Unfractionated Heparin Neutralized ([1]; 60 μg/ml Peptide, B Plasma): 0.566 ± 0.036 U/ml | Unfractionated Heparin Neutralized ([1]; 60 μg/ml Peptide, C Plasma): 0.572 ± 0.076 U/ml | Unfractionated Heparin Neutralized ([1]; 60 μg/ml Peptide, Citrate): 0.560 ± 0.018 U/ml | Unfractionated Heparin Neutralized ([1]; 120 μg/ml Peptide, A Plasma): 0.618 ± 0.051 U/ml | Unfractionated Heparin Neutralized ([1]; 120 μg/ml Peptide, B Plasma): 0.512 ± 0.032 U/ml | Unfractionated Heparin Neutralized ([1]; 120 μg/ml Peptide, C Plasma): 0.580 ± 0.051 U/ml | Unfractionated Heparin Neutralized ([1]; 120 μg/ml Peptide, Citrate): 0.530 ± 0.019 U/ml | Orgaran Neutralized ([2]; 1 μg/ml Peptide, A Plasma): 0.016 ± 0.012 U/ml | Orgaran Neutralized ([2]; 1 μg/ml Peptide, B Plasma): 0.038 ± 0.036 U/ml | Orgaran Neutralized ([2]; 1 μg/ml Peptide, C Plasma): 0.008 ± 0.005 U/ml | Orgaran Neutralized ([2]; 1 μg/ml Peptide, Citrate): 0.072 ± 0.052 U/ml | Orgaran Neutralized ([2]; 6 μg/ml Peptide, A Plasma): 0.074 ± 0.049 U/ml | Orgaran Neutralized ([2]; 6 μg/ml Peptide, B Plasma): 0.027 ± 0.016 U/ml | Orgaran Neutralized ([2]; 6 μg/ml Peptide, C Plasma): 0.030 ± 0.009 U/ml | Orgaran Neutralized ([2]; 6 μg/ml Peptide, Citrate): 0.099 ± 0.062 U/ml | Orgaran Neutralized ([2]; 12 μg/ml Peptide, A Plasma): 0.050 ± 0.031 U/ml | Orgaran Neutralized ([2]; 12 μg/ml Peptide, B Plasma): 0.082 ± 0.029 U/ml | Orgaran Neutralized ([2]; 12 μg/ml Peptide, C Plasma): 0.063 ± 0.025 U/ml | Orgaran Neutralized ([2]; 12 μg/ml Peptide, Citrate): 0.180 ± 0.023 U/ml | Orgaran Neutralized ([2]; 60 μg/ml Peptide, A Plasma): 0.287 ± 0.033 U/ml | Orgaran Neutralized ([2]; 60 μg/ml Peptide, B Plasma): 0.282 ± 0.020 U/ml | Orgaran Neutralized ([2]; 60 μg/ml Peptide, C Plasma): 0.250 ± 0.030 U/ml | Orgaran Neutralized ([2]; 60 μg/ml Peptide, Citrate): 0.319 ± 0.016 U/ml | Orgaran Neutralized ([2]; 120 μg/ml Peptide, A Plasma): 0.389 ± 0.118 U/ml | Orgaran Neutralized ([2]; 120 μg/ml Peptide, B Plasma): 0.374 ± 0.062 U/ml | Orgaran Neutralized ([2]; 120 μg/ml Peptide, C Plasma): 0.335 ± 0.012 U/ml | Orgaran Neutralized ([2]; 120 μg/ml Peptide, Citrate): 0.340 ± 0.010 U/ml | effect on platelet aggregation (platelets): no significant inhibition or enhancement of aggregation | effectiveness in thrombin neutralization assay [3]: effective | Time for clot formation ([3]; 0.35 μg peptide/0.1 ml, plasma A): 37.67 ± 5.25 s | Time for clot formation ([3]; 0.40 μg peptide/0.1 ml, plasma A): 29.00 ± 0.82 s | Time for clot formation ([3]; 0.40 μg peptide/0.1 ml, plasma B): 47.67 ± 8.34 s | Time for clot formation ([3]; 0.40 μg peptide/0.1 ml, plasma C): 56.33 ± 1.70 s | Time for clot formation ([3]; 0.50 μg peptide/0.1 ml, plasma A): 23.67 ± 2.05 s | Time for clot formation ([3]; 0.50 μg peptide/0.1 ml, plasma B): 34.33 ± 1.25 s | Time for clot formation ([3]; 0.50 μg peptide/0.1 ml, plasma C): 43.00 ± 2.45 s | effect on blood pressure [4]: did not cause a change in blood pressure | effect on blood pressure and heart rate / toxicity [5]: no, or minimal, adverse effects on blood pressure or heart rate; also recorded: not toxic | effect on blood pressure and heart rate / toxicity ([5]; listed as C(ARKKAAKA)4C-cyclized): All rats tested showed no response
